Results on 27 molecules are retold here after US10584115B2, “Substituted pyridine and pyrazine BMI-1 inhibitors” (PTC Therapeutics, Inc., priority 2013, dated 2020).

The test system of this assay is Bmi-1 protein. As to the kind of experiment: Sandwich ELISA Assay (Bmi-1 protein level in HT-1080 cells after compound treatment). The format is cell-based. The settings on record: Table 1, Bmi-1 sandwich ELISA, read-out: ELISA EC50 value for Bmi-1 protein. The gist of the method: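 Sandwich ELISA quantified Bmi-1 protein against recombinant standard (125–8000 pg/mL), with lysates captured overnight at 4 °C and signal by HRP/TMB at 450 nm (570 nm reference). Lysates came from HT-1080 cells incubated 40–48 h with test compounds in 0.5% DMSO.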
(In general: In an ELISA, binding on a coated surface is turned into a signal by an enzyme label.)
As for `OCCNc1cc(Nc2ccc(OC(F)F)cc2)nc(-c2c(C(F)(F)F)nc3ccccn23)c1` [compound 171], the EC50 (usually the concentration giving half of the maximal effect) is 0.01 to 0.1 µM.

Regarding `COCCNc1cc(Nc2ccc(OC(F)F)cc2)nc(-c2c(C(F)(F)F)nc3ccccn23)c1` [compound 172, N^2-[4-(difluoromethoxy)phenyl]-N^4-(2-methoxyethyl)-6-[2-(trifluoromethyl)imidazo[1,2-a]pyridin-3-yl]pyridine-2,4-diamine], the EC50 lay in the range of 0.01 to 0.1 µM.

`CSc1cc(Nc2ccc(C(F)(F)F)cc2)nc(-c2c(C(F)(F)F)nc3ccccn23)c1` [compound 173, 4-(methylsulfanyl)-6-[2-(trifluoromethyl)imidazo[1,2-a]pyridin-3-yl]-N-[4-(trifluoromethyl)phenyl]pyridin-2-amine]: the EC50 is 0.1 to 3 µM.

Take `COc1ccc(Nc2cccc(-n3c(C)cc4ccccc43)n2)cc1` [compound 174, N-(4-methoxyphenyl)-6-(2-methyl-1H-indol-1-yl)pyridin-2-amine]: the EC50 lay within 0.1 to 3 µM.

With `CCc1nc2cc(F)c(F)cc2n1-c1cncc(Nc2ccc(C(F)(F)F)cc2)n1` [compound 177, 6-(2-ethyl-5,6-difluoro-1H-benzimidazol-1-yl)-N-[4-(trifluoromethyl)phenyl]pyrazin-2-amine], the EC50 lay in the range of 0.01 to 0.1 µM.

On to `CSc1nc2ccccc2n1-c1cncc(Nc2ccc(OC(F)F)cc2)n1` [compound 181, N-[4-(difluoromethoxy)phenyl]-6-[2-(methylsulfanyl)-1H-benzimidazol-1-yl]pyrazin-2-amine], for which the EC50 was in the range of 0.01 to 0.1 µM.

In the case of `Fc1cc2nc(C3CC3)n(-c3cncc(Nc4ccc(C(F)(F)F)cc4)n3)c2cc1F` [compound 182, 6-(2-cyclopropyl-5,6-difluoro-1H-benzimidazol-1-yl)-N-[4-(trifluoromethyl)phenyl]pyrazin-2-amine], the concentration for a half-maximal effect (EC50) lay in the range of 0.01 to 0.1 µM.

Consider `CNc1nc2ccccc2n1-c1cncc(Nc2ccc(OC(F)(F)F)cc2)n1` [compound 183, N-methyl-1-(6-{[4-(trifluoromethoxy)phenyl]amino}pyrazin-2-yl)-1H-benzimidazol-2-amine], for which the 50% effective concentration (EC50) is 0.01 to 0.1 µM.

For the molecule `N#Cc1nc2ccccc2n1-c1cncc(Nc2ccc(OC(F)(F)F)cc2)n1` [compound 184, 1-(6-{[4-(trifluoromethoxy)phenyl]amino}pyrazin-2-yl)-1H-benzimidazole-2-carbonitrile], the EC50 lay within 0.1 to 3 µM.

For `Cc1nc2ccccc2n1-c1cncc(Nc2ccc(C(N)=O)cc2)n1` [compound 185, 4-{[6-(2-methyl-1H-benzimidazol-1-yl)pyrazin-2-yl]amino}benzamide], the EC50 was in the range of 0.1 to 3 µM.

As for `CNC(=O)c1ccc(Nc2cncc(-n3c(C)nc4ccccc43)n2)cc1` [compound 186, N-methyl-4-{[6-(2-methyl-1H-benzimidazol-1-yl)pyrazin-2-yl]amino}benzamide], the EC50 lay in the range of 0.1 to 3 µM.

Regarding `CNc1nc2ccccc2n1-c1cncc(Nc2ccc(OC(F)F)cc2)n1` [compound 187, 1-(6-{[4-(difluoromethoxy)phenyl]amino}pyrazin-2-yl)-N-methyl-1H-benzimidazol-2-amine], the EC50 fell in the range of 0.001 to 0.01 µM.

With `N#Cc1nc2ccccc2n1-c1cncc(Nc2ccc(OC(F)F)cc2)n1` [compound 188, 1-(6-{[4-(difluoromethoxy)phenyl]amino}pyrazin-2-yl)-1H-benzimidazole-2-carbonitrile], the EC50 was 0.01 to 0.1 µM.

Take `CSc1nc2ccccn2c1-c1cncc(Nc2ccc(C(F)(F)F)cc2)n1` [compound 191, 6-[2-(methylsulfanyl)imidazo[1,2-a]pyridin-3-yl]-N-[4-(trifluoromethyl)phenyl]pyrazin-2-amine]: the half-maximal effective concentration (EC50) is 0.001 to 0.01 µM.

As to `Cc1nc2cc(Cl)c(Cl)cc2n1-c1cncc(Nc2ccc(OC(F)(F)F)cc2)n1` [compound 192, 6-(5,6-dichloro-2-methyl-1H-benzimidazol-1-yl)-N-[4-(trifluoromethoxy)phenyl]pyrazin-2-amine], the EC50 lay in the range of 0.01 to 0.1 µM.

For the molecule `Cc1nc2cc(Cl)c(Cl)cc2n1-c1cncc(Nc2ccc(C(F)(F)F)cc2)n1` [compound 193, 6-(5,6-dichloro-2-methyl-1H-benzimidazol-1-yl)-N-[4-(trifluoromethyl)phenyl]pyrazin-2-amine], the EC50 fell in the range of 0.01 to 0.1 µM.

As for `FC(F)(F)c1ccc(Nc2cccc(-c3c(C(F)(F)F)nc4cnccn34)n2)cc1` [compound 194, 6-[2-(trifluoromethyl)imidazo[1,2-a]pyrazin-3-yl]-N-[4-(trifluoromethyl)phenyl]pyridin-2-amine], the EC50 was 0.01 to 0.1 µM.

For the molecule `FC(F)(F)Oc1ccc(Nc2cccc(-c3c(C(F)(F)F)nc4cnccn34)n2)cc1` [compound 195, N-[4-(trifluoromethoxy)phenyl]-6-[2-(trifluoromethyl)imidazo[1,2-a]pyrazin-3-yl]pyridin-2-amine], the EC50 is 0.1 to 3 µM.

As for `FC(F)Oc1ccc(Nc2cccc(-c3c(C(F)(F)F)nc4cnccn34)n2)cc1` [compound 196, N-[4-(difluoromethoxy)phenyl]-6-[2-(trifluoromethyl)imidazo[1,2-a]pyrazin-3-yl]pyridin-2-amine], the EC50 was 0.01 to 0.1 µM.

For the molecule `O=[N+]([O-])c1cc(Nc2ccc(OC(F)(F)F)cc2)nc(-c2c(C(F)(F)F)nc3ccccn23)c1` [compound 197, 4-nitro-N-[4-(trifluoromethoxy)phenyl]-6-[2-(trifluoromethyl)imidazo[1,2-a]pyridin-3-yl]pyridin-2-amine], the EC50 fell in the range of 0.01 to 0.1 µM.

Turning to `Nc1cc(Nc2ccc(OC(F)(F)F)cc2)nc(-c2c(C(F)(F)F)nc3ccccn23)c1` [compound 198, N^2-[4-(trifluoromethoxy)phenyl]-6-[2-(trifluoromethyl)imidazo[1,2-a]pyridin-3-yl]pyridine-2,4-diamine], the EC50 is 0.01 to 0.1 µM.

Take `Cc1nc2cc(F)c(F)cc2n1-c1cncc(Nc2ccc(OC(F)F)cc2)n1` [compound 199, N-[4-(difluoromethoxy)phenyl]-6-(5,6-difluoro-2-methyl-1H-benzimidazol-1-yl)pyrazin-2-amine]: the EC50 lay in the range of 0.001 to 0.01 µM.

In the case of `FC(F)(F)c1nc2ccccn2c1-c1cncc(Nc2cnc(Cl)nc2)n1` [compound 200, 2-chloro-N-{6-[2-(trifluoromethyl)imidazo[1,2-a]pyridin-3-yl]pyrazin-2-yl}pyrimidin-5-amine], the EC50 lay in the range of 0.1 to 3 µM.

As for `Oc1ccc(Nc2cncc(-c3c(C(F)(F)F)nc4ccccn34)n2)cc1` [compound 207, 4-({6-[2-(trifluoromethyl)imidazo[1,2-a]pyridin-3-yl]pyrazin-2-yl}amino)phenol], the concentration for a half-maximal effect (EC50) lay in the range of 0.1 to 3 µM.

On to `Cc1nc2ccccc2n1-c1cncc(Nc2ccc(C(F)(F)F)c(F)c2)n1` [compound 209, N-[3-fluoro-4-(trifluoromethyl)phenyl]-6-(2-methyl-1H-benzimidazol-1-yl)pyrazin-2-amine], for which the EC50 lay in the range of 0.01 to 0.1 µM.

As for `N#Cc1cc(Nc2ccc(C(F)(F)F)cc2)nc(-c2c(C(F)(F)F)nc3ccccn23)c1` [compound 210, 2-[2-(trifluoromethyl)imidazo[1,2-a]pyridin-3-yl]-6-{[4-(trifluoromethyl)phenyl]amino}pyridine-4-carbonitrile], the EC50 is 0.01 to 0.1 µM.

Consider `FC(F)(F)Sc1ccc(Nc2cncc(-c3c(C(F)(F)F)nc4ccccn34)n2)cc1` [compound 211, 6-[2-(trifluoromethyl)imidazo[1,2-a]pyridin-3-yl]-N-{4-[(trifluoromethyl)sulfanyl]phenyl}pyrazin-2-amine], for which the concentration giving a half-maximal response (EC50) was in the range of 0.1 to 3 µM.
